Publication PMC10895678 (Journal of Medicinal Chemistry, 2024)
Values joined by “and” are separate entries in the source; they are usually repeats but may differ in a detail not shown here. Equal values may be shown once. Read-outs that look alike come from different tables or passages of the source.

Assay: Mouse PK, combined (cassette) dosing of BGAz-001–005
Assay type: in vivo, KM mice
Parameters: AUMC(0-t) / VRT(0-t) / λz: unit not given here
Settings: for AUC(0-t): read-out: AUC(0-t); for MRT last: read-out: MRT(0-t); for MRT inf: read-out: MRT(0-∞); for Vd/F: read-out: Vz/F
Description: Methods for combined single dosing (BGAz001–005) and dosing of single compounds multiple times (BGAz004 and BGAz005) are described in detail in the Supporting Information (PK Data).
Report on PK Results of Combined Dosing with BGAz-001–005
1 Materials and instrument combined dosing
An MS2 Turnover type oscillator was purchased from IKA Work’s Guangzhou (China), and a 5415R ChromatographicanalyseswereconductedusinganAgilent1290InfinityIIhighperformanceliquidchromatography andAgilentTechnologies6470TripleQuadLC/MS.Propranolol(≥90%inpurity,internalstandard,IS)waspurchased fromtheSigmaChemicalCo.(China).Formicacid(HPLCgrade)andmethanol(HPLCgrade)werepurchasedfrom DIKMACo.(China).Allchemicalsandsolventswereanalyticalgrade.WaterwaspurifiedusingaMillipore(AK,USA) laboratoryultra-purewatersystem(0.2μmfilter).
KMmice,weighing25–35g(BeijingVitalRiverLaboratoryAnimalTechnologyCo.,Ltd.,China)wereutilisedforthe studies.The protocols were approved by the Animal Care and Use Committee, GIBH. Animals were maintained on standard animal chow and waterad libitum, in a climate-controlled room (23±1 °C 30–70% relative humidity, a minimumof tenexchangesof roomairperhouranda12hlight/darkcycle)foroneweekpriortoexperiments.
3 Pharmacokinetic studies
Compounds BGAz-001 ，BGAz-002 ，BGAz-003 ，BGAz-004 and BGAz-005 were dissolved mixed in a solution containing DMSO (2%),ethanol (4%), Cremophor EL (4%) and ddH2O (90%); Pharmacokinetic propertiesof KM (male) were determined following IV, PO and IP administration. Animals were randomly distributed into three experimentalgroups(n=4).ThePOgroupwasgivenmixedsolutionwith5mg/kgbygastricgavage.TheIVgroup was dosed with mixed solution 1mg/kg byinjection into the tail vein. The IP group was dosed with mixed solution 1mg/kg by intraperitoneal injection. After single administration, whole blood samples (100 μL) were obtained from the orbital venousplexus atthe followingtime pointsafter dosing:5, 15,30 minand 1,3, 5,8, 24hour (PO and IP groups) and at the following time points after dosing 2, 10, 30min and 1, 3, 5, 8,24 hour (IV group). Wholeblood samples were collected in heparinised tubes. The plasma fraction was immediately separated by centrifugation. The micewerehumanelyeuthanasiabycarbondioxide24hoursafterexperimentwithoutpain.
4 Plasma sample and brain sample analysis
4.1 Standard curve sample preparation
ThecompoundsweredissolvedinDMSO(2mg/mL)anddilutedwithtoseriesconcentration(methanol:H 2O,1:1,10 μL) and blank plasma (50 μL) were added to 1.5 mL tubes and vortexed for 3 min, then acetonitrile-containing internalstandard(150μL)wasaddedandvortexedforafurther5min,andsubsequentlyspuninacentrifugeat13000 […]
4.2 Plasma and preparation
Plasmasampleswerepreparedusingaproteinprecipitationmethod.Solution(10μL,methanolH 2O,1:1)andplasma samples(50μL)wereaddedto1.5mLtubesandvortexfor3min,thenacetonitrile-containinginternalstandard(150 μL)wasaddedandvortexfor5min,andsubsequentlyspuninacentrifugeat13000× gfor40minat4°C.
Aftercentrifugation,supernatant(100μL)wastransferto96wellplatesandanalysedbyLC-MS/MSusinganAgilent 1290InfinityIIHPLCandanAgilentTechnologies6470TripleQuadLC/MS.

[1] = IP 1 mg/kg, cassette, mean of animals
[2] = IV 1 mg/kg, cassette, mean of animals
[3] = PO 5 mg/kg, cassette, mean of animals
[4] = male, KM, mouse, plasma, IP 1 mg/kg, cassette
[5] = male, KM, mouse, plasma, IP 1 mg/kg, cassette, mean of animals
[6] = male, KM, mouse, plasma, IV 1 mg/kg, cassette
[7] = male, KM, mouse, plasma, IV 1 mg/kg, cassette, mean of animals
[8] = male, KM, mouse, plasma, PO 5 mg/kg, cassette
[9] = male, KM, mouse, plasma, PO 5 mg/kg, cassette, mean of animals

CNCC1CC(c2ccc(OC(F)(F)F)cc2)N1Cc1ccccc1OC(F)(F)F (stereo not drawn) [BGAz-005]
AUMC(0-t) [1]: 2746.024 **μg | AUMC(0-∞) [1]: 5711.413 **μg | CLz/F [1]: 2.157 L/kg | C_last [1]: 5.459 µg | R_AUC(t/∞) [1]: 83.575% | VRT(0-t) [1]: 43.817 ^2 | VRT(0-∞) [1]: 202.71 ^2 | λz [1]: 0.079 1/ | AUC(0-∞) (IP 1 mg/kg, cassette, summary table): 464.151 µg·h | AUMC(0-t) [2]: 2221.012 **μg | AUMC(0-∞) [2]: 3469.367 **μg | CLz/F [2]: 2.386 L/kg | C_last [2]: 2.531 µg | R_AUC(t/∞) [2]: 91.7% | VRT(0-t) [2]: 45.323 ^2 | VRT(0-∞) [2]: 139.16 ^2 | Vz/F [2]: 28.599 L/kg | λz [2]: 0.098 1/ | AUC(0-∞) (IV 1 mg/kg, cassette, summary table): 424.729 µg·h | BA (PO 5 mg/kg vs IV 1 mg/kg, cassette): 72.63% | AUMC(0-t) [3]: 6391.819 **μg | AUMC(0-∞) [3]: 80528.925 **μg | CLz/F [3]: 14.928 L/kg | C_last [3]: 18.45 µg | R_AUC(t/∞) [3]: 55.825% | VRT(0-t) [3]: 47.178 ^2 | VRT(0-∞) [3]: 2247.307 ^2 | λz [3]: 0.017 1/ | AUC(0-∞) (PO 5 mg/kg, cassette, summary table): 1542.381 µg·h | AUC(0-inf) (male, KM, mouse, plasma, ip, 1 mg/kg, IP 1 mg/kg, cassette, mean of animals, read-out: AUC(0-∞)): 464 ng·h/mL | Cmax (male, KM, mouse, plasma, ip, 1 mg/kg, IP 1 mg/kg, cassette, mean of animals, read-out: Cmax): 41.9 ng/mL | Tmax (male, KM, mouse, plasma, ip, 1 mg/kg, IP 1 mg/kg, cassette, mean of animals, read-out: Tmax): 0.646 h | Cmax (male, KM, mouse, plasma, ip, 1 mg/kg, IP 1 mg/kg, cassette, summary table, read-out: Cmax): 41.9 ng/mL | half-life (male, KM, mouse, plasma, ip, 1 mg/kg, IP 1 mg/kg, cassette, summary table, read-out: T1/2 (converted)): 9.34 h | Tmax (male, KM, mouse, plasma, ip, 1 mg/kg, IP 1 mg/kg, cassette, summary table, read-out: Tmax): 0.646 h | AUC(0-inf) (male, KM, mouse, plasma, iv, 1 mg/kg, IV 1 mg/kg, cassette, mean of animals, read-out: AUC(0-∞)): 425 ng·h/mL | Cmax (male, KM, mouse, plasma, iv, 1 mg/kg, IV 1 mg/kg, cassette, mean of animals, read-out: Cmax): 320 ng/mL | Tmax (male, KM, mouse, plasma, iv, 1 mg/kg, IV 1 mg/kg, cassette, mean of animals, read-out: Tmax): 0.033 h | Cmax (male, KM, mouse, plasma, iv, 1 mg/kg, IV 1 mg/kg, cassette, summary table, read-out: Cmax): 320 ng/mL | half-life (male, KM, mouse, plasma, iv, 1 mg/kg, IV 1 mg/kg, cassette, summary table, read-out: T1/2 (converted)): 8.05 h | Tmax (male, KM, mouse, plasma, iv, 1 mg/kg, IV 1 mg/kg, cassette, summary table, read-out: Tmax): 0.033 h | AUC(0-inf) (male, KM, mouse, plasma, po, 5 mg/kg, 5 mg/kg PO, cassette dosing, read-out: AUC0-inf): 1540 ng·h/mL | Cmax (male, KM, mouse, plasma, po, 5 mg/kg, 5 mg/kg PO, cassette dosing, read-out: Cmax (Mouse, P.O.)): 43.1 ng/mL | half-life (male, KM, mouse, plasma, po, 5 mg/kg, 5 mg/kg PO, cassette dosing, read-out: T1/2 (Mouse, P.O.) (converted)): 35.7 h | Tmax (male, KM, mouse, plasma, po, 5 mg/kg, 5 mg/kg PO, cassette dosing, read-out: Tmax (Mouse, P.O.)): 6 h | AUC(0-inf) (male, KM, mouse, plasma, po, 5 mg/kg, PO 5 mg/kg, cassette, mean of animals, read-out: AUC(0-∞)): 1540 ng·h/mL | Cmax (male, KM, mouse, plasma, po, 5 mg/kg, PO 5 mg/kg, cassette, mean of animals, read-out: Cmax): 43.1 ng/mL | Tmax (male, KM, mouse, plasma, po, 5 mg/kg, PO 5 mg/kg, cassette, mean of animals, read-out: Tmax): 6 h | Cmax (male, KM, mouse, plasma, po, 5 mg/kg, PO 5 mg/kg, cassette, summary table, read-out: Cmax): 43.1 ng/mL | half-life (male, KM, mouse, plasma, po, 5 mg/kg, PO 5 mg/kg, cassette, summary table, read-out: T1/2 (converted)): 35.7 h | Tmax (male, KM, mouse, plasma, po, 5 mg/kg, PO 5 mg/kg, cassette, summary table, read-out: Tmax): 6 h | concentration at 0.083 h [4]: 27 ng/mL and 60 nM | concentration at 0.25 h [4]: 70 nM and 29.8 ng/mL | concentration at 0.5 h [4]: 80 nM and 36.3 ng/mL | concentration at 1 h [4]: 90 nM and 39.8 ng/mL | concentration at 3 h [4]: 80 nM and 33.4 ng/mL | concentration at 5 h [4]: 50 nM and 21.3 ng/mL | concentration at 8 h [4]: 40 nM and 15.4 ng/mL | concentration at 24 h [4]: 10 nM and 5.44 ng/mL | AUC(0-t) [5]: 388 ng·h/mL | MRT last [5]: 7.13 h | MRT inf [5]: 12.3 h | Vd/F [5]: 28.9 L/kg | concentration at 0.033 h (male, KM, mouse, plasma, IV 1 mg/kg, cassette, 0.033 h): 320 ng/mL and 740 nM | concentration at 0.167 h (male, KM, mouse, plasma, IV 1 mg/kg, cassette, 0.167 h): 330 nM and 145 ng/mL | concentration at 0.5 h [6]: 170 nM and 75.2 ng/mL | concentration at 1 h [6]: 120 nM and 50.1 ng/mL | concentration at 3 h [6]: 60 nM and 25.4 ng/mL | concentration at 5 h [6]: 40 nM and 16.1 ng/mL | concentration at 8 h [6]: 20 nM and 10.3 ng/mL | concentration at 24 h [6]: 10 nM and 5.2 ng/mL | C0 [7]: 392 ng/mL | AUC(0-t) [7]: 392 ng·h/mL | MRT last [7]: 5.5 h | MRT inf [7]: 8.24 h | concentration at 0.083 h [8]: 7.08 ng/mL and 20 nM | concentration at 0.25 h [8]: 30 nM and 11.3 ng/mL | concentration at 0.5 h [8]: 50 nM and 20.4 ng/mL | concentration at 1 h [8]: 70 nM and 32.5 ng/mL | concentration at 3 h [8]: 90 nM and 39.1 ng/mL | concentration at 5 h [8]: 90 nM and 37.6 ng/mL | concentration at 8 h [8]: 90 nM and 40.2 ng/mL | concentration at 24 h [8]: 60 nM and 24.3 ng/mL | AUC(0-t) [9]: 621 ng·h/mL | MRT last [9]: 8.45 h | MRT inf [9]: 38.7 h | Vd/F [9]: 129 L/kg
